The values that follow come from patent US4656166A, “Antibiotic compounds derived from cephalosporins, process for their production and pharmaceutical compositions” (Sanofi, priority 1983, dated 1987).

Converted amounts (≈) assume the structure as drawn. Like-named read-outs stand apart in the source and are kept apart here.

The MIC is the least concentration at which growth counts as inhibited.

The subject of assay [1] is Escherichia coli SOL 90. Put plainly: MIC, in vitro dilution method, Escherichia coli SOL 90 (Table III). The assay is classed as cell-based. The following applies: SOL90; Escherichia coli SOL 90; dilution method; read-out: MIC. In outline:
(§1)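 Compounds are serially diluted in vitro and tested for bacteriostatic effect on each Gram-negative strain; the lowest inhibiting concentration is recorded as MIC (μg/ml).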

In assay [2] the test system is Citrobacter RL 49. Put plainly: MIC, in vitro dilution method, Citrobacter RL 49 (Table III). Type of assay: cell-based. The following applies: RL49. Summed up:
as §1

Assay [3] concerns Proteus vulgaris RL 99 bis. In words: MIC, in vitro dilution method, Proteus vulgaris RL 99 bis (Table III). Type of assay: cell-based. The settings on record: RL99BIS. In outline:
as §1

The subject of assay [4] is Serratia RL 72. Put plainly: MIC, in vitro dilution method, Serratia RL 72 (Table III). The settings on record: RL72. Type of assay: cell-based. In outline: as §1
For assay [5], the system named is Klebsiella RO 30. In words: MIC, in vitro dilution method, Klebsiella RO 30 (Table III). The assay is classed as cell-based. The following applies: RO30; Klebsiella RO 30; dilution method; read-out: MIC. In outline: as §1
Assay [6] concerns Enterobacter RO 154. Put plainly: MIC, in vitro dilution method, Enterobacter RO 154 (Table III). Type of assay: cell-based. The settings on record: RO154; Enterobacter RO 154; dilution method; read-out: MIC. In outline:
as §1

For assay [7], the system named is Pseudomonas RL 112. Put plainly: MIC, in vitro dilution method, Pseudomonas RL 112 (Table III). Type of assay: cell-based. The settings on record: RL112. In outline: as §1
Assay [8] deals with Escherichia coli 255. Put plainly: MIC on beta-lactamase producing strain Escherichia coli 255 (Table IV). The settings on record: Escherichia coli 255, producing beta-lactamases; read-out: MIC. Type of assay: cell-based. The method, then:
(§2) To evaluate the stability of these products towards beta-lactamases, their MIC was determined on isogenic strains producing and not producing beta-lactamases.
(§3) The results are expressed in μg/ml in Table IV.

In assay [9] the test system is Escherichia coli 255/L.7. Put plainly: MIC on strain not producing beta-lactamase, Escherichia coli 255/L.7 (Table IV). The assay is classed as cell-based. The following applies: Escherichia coli 255/L.7 *, not producing beta-lactamases; read-out: MIC. The procedure:
as §2, §3

Assay [10] concerns Serrtia liquefaciens SL/326 A. Put plainly: MIC on beta-lactamase producing strain Serratia liquefaciens SL/326 A (Table IV). The assay is classed as cell-based. The method, then:
as §2, §3

The test system of assay [11] is Serrtia liquefaciens SL 1326 S. In words: MIC on strain not producing beta-lactamase, Serratia liquefaciens SL 1326 S (Table IV). The assay is classed as cell-based. The settings on record: SL1326S, not producing beta-lactamases. The method, then: as §2, §3
For assay [12], the system named is Proteus vulgaris GN 76/C.1. In words: MIC on beta-lactamase producing strain Proteus vulgaris GN 76/C.1 (Table IV). Type of assay: cell-based. The settings on record: GN76. The method, then: as §2, §3
The subject of assay [13] is Proteus vulgaris GN 76/C.1/3. In words: MIC on strain not producing beta-lactamase, Proteus vulgaris GN 76/C.1/3 (Table IV). Type of assay: cell-based. The following applies: GN76, not producing beta-lactamases. The procedure:
as §2, §3

Assay [14] concerns Escherichia coli SOL 90. Put plainly: septicemic model of the mouse, Escherichia coli SOL 90 (Table V). The assay is classed as in vivo. The following applies: SOL90, sc, 96 h, mouse septicemia, sub-cutaneous, 1 to 5 hours after inoculation, 4 days observation, read-out: DE50 (the source's name). The procedure:
The therapeutic effectiveness of the products was determined on the septicemic model of the mouse. the septicemia was initiated by the intraperitoneal innoculation of 0.5 ml of a suitable dilution of a suspension of the Escherichia coli SOL 90 strain. The products were administered in solution in a phosphate buffer pH 7.0 in a volume of 0.2 ml sub-cutaneously to batches of 10 mice, 1 to 5 hours after innoculation of the microorganism. After 4 days of observation in the course of which the mortality was noted, the 50% effective doses (DE 50) were calculated by the Muench and Reed method.

The test system of assay [15] is Klebsiella RO 30. In words: septicemic model of the mouse, Klebsiella RO 30 (Table V). Type of assay: in vivo. The following applies: RO30, sc, 96 h, mouse septicemia, sub-cutaneous, 4 days observation, read-out: DE50 (the source's name).
The mark [16] stands for this setting: Citrobacter RL 49, dilution method, read-out: MIC.
The mark [17] stands for this setting: Proteus vulgaris RL 99 bis, dilution method, read-out: MIC.
Setting [18] is: Proteus vulgaris GN 76/C.1, producing beta-lactamases, read-out: MIC.

Consider `CC(C)(O/N=C(\C(=O)NC1C(=O)N2C(C(=O)O)=C(COC(=O)[C@H]3CC[C@H](CN)CC3)C[S+]([O-])C12)c1csc(N)n1)C(=O)O` (stereo partly drawn) [42 117], for which the MIC in assay [1] is 0.25 µg/mL (≈ 0.39 µM); in assay [2] (setting [16]) it was 0.25 µg/mL (≈ 0.39 µM); in assay [3] (setting [17]) it was no more than 0.12 µg/mL; in assay [4], 0.5 µg/mL (≈ 0.78 µM); in assay [5], no more than 0.12 µg/mL; in assay [6], 1 µg/mL (≈ 1.56 µM). Moreover, the MIC in assay [7] is 4 µg/mL (≈ 6.24 µM); in [8] it was 0.125 µg/mL (≈ 0.195 µM); in assay [9], 0.06 µg/mL (≈ 0.0936 µM); in assay [10], 0.12 µg/mL (≈ 0.187 µM); in [11], no more than 0.06 µg/mL; in [12] (setting [18]) it was no more than 0.06 µg/mL. This molecule also returned an MIC in assay [13] of no more than 0.06 µg/mL. Besides, the ED50 in assay [14] was 0.11 mg/kg.
For the molecule `CC(C)(O/N=C(\C(=O)NC1C(=O)N2C(C(=O)O)=C(COC(=O)CCCN)C[S+]([O-])C12)c1csc(N)n1)C(=O)O` (stereo not drawn) [41 854], the MIC in [1] is 0.25 µg/mL (≈ 0.426 µM); in assay [2] (setting [16]), 0.5 µg/mL (≈ 0.852 µM); in [3] (setting [17]), no more than 0.12 µg/mL; in assay [4], 0.5 µg/mL (≈ 0.852 µM); in assay [5], 0.25 µg/mL (≈ 0.426 µM); in [6] it was 2 µg/mL (≈ 3.41 µM). Further, the MIC in [7] is 4 µg/mL (≈ 6.82 µM); in [8], no more than 0.12 µg/mL; in assay [9], no more than 0.12 µg/mL; in assay [10], 0.25 µg/mL (≈ 0.426 µM); in [11], no more than 0.12 µg/mL; in [12] (setting [18]), 0.25 µg/mL (≈ 0.426 µM). In addition, the results for the ED50 in [14] and in [15] were 0.23 mg/kg and 0.19 mg/kg, respectively.
Regarding `CC(C)(ON=C(C(=O)NC1C(=O)N2C(C(=O)O)=C(CSC(=O)c3ccc(CN)cc3)C[S+]([O-])C12)c1csc(N)n1)C(=O)O` (stereo not drawn) [compound 42119], the MIC in assay [1] was 0.5 µg/mL (≈ 0.768 µM); in assay [2] (setting [16]), 0.25 µg/mL (≈ 0.384 µM); in [3] (setting [17]), no more than 0.12 µg/mL; in assay [4] it was 4 µg/mL (≈ 6.15 µM); in [5] it was 0.5 µg/mL (≈ 0.768 µM); in [6], 8 µg/mL (≈ 12.3 µM). Further, the MIC in assay [7] was 8 µg/mL (≈ 12.3 µM); in assay [8], 0.25 µg/mL (≈ 0.384 µM); in [9] it was 0.12 µg/mL (≈ 0.184 µM); in [10], 0.25 µg/mL (≈ 0.384 µM); in [11], no more than 0.06 µg/mL; in [12] (setting [18]) it was 0.12 µg/mL (≈ 0.184 µM). In addition, the ED50 in [14] turned out to be 0.16 mg/kg.
In the case of `CC(C)(O/N=C(\C(=O)NC1C(=O)N2C(C(=O)O)=C(COC(=O)c3ccc(CN)cc3)C[S+]([O-])C12)c1csc(N)n1)C(=O)O` (stereo not drawn) [42 042], the MIC was no more than 0.12 µg/mL in [1]; no more than 0.12 µg/mL in assay [2] (setting [16]); no more than 0.12 µg/mL in [3] (setting [17]); 2 µg/mL (≈ 3.15 µM) in assay [4]; no more than 0.12 µg/mL in assay [5]; 1 µg/mL (≈ 1.58 µM) in [6]. For the same molecule, the MIC was 4 µg/mL (≈ 6.3 µM) in assay [7]; no more than 0.12 µg/mL in assay [8]; no more than 0.12 µg/mL in assay [9]; 0.25 µg/mL (≈ 0.394 µM) in assay [10]; no more than 0.12 µg/mL in [11]; no more than 0.12 µg/mL in [12] (setting [18]). The MIC in assay [13] is no more than 0.12 µg/mL. The ED50 in assay [14] was determined as 0.05 mg/kg.
For the molecule `CC(C)(ON=C(C(=O)NC1C(=O)N2C(C(=O)O)=C(COC(=O)C3CCN(C(=O)CN)CC3)C[S+]([O-])C12)c1csc(N)n1)C(=O)O` (stereo not drawn) [42 549], the minimal inhibitory concentration (MIC) in assay [1] is 0.25 µg/mL (≈ 0.373 µM); in assay [2] (Citrobacter) it was no more than 0.125 µg/mL; in assay [3] (Proteus vulgaris), no more than 0.125 µg/mL; in [4] it was 0.5 µg/mL (≈ 0.747 µM); in assay [5], 0.25 µg/mL (≈ 0.373 µM); in assay [6] it was 0.25 µg/mL (≈ 0.373 µM). Also, the minimum inhibitory concentration (MIC) in assay [7] was 4 µg/mL (≈ 5.97 µM); in [8], 0.125 µg/mL (≈ 0.187 µM); in assay [9], 0.0625 µg/mL (≈ 0.0933 µM); in [10] it was 0.125 µg/mL (≈ 0.187 µM); in assay [11], no more than 0.0312 µg/mL; in [12] (Proteus vulgaris), no more than 0.0312 µg/mL. The molecule also registered an MIC in [13] of 0.0625 µg/mL (≈ 0.0933 µM).
Take `CC(C)(ON=C(C(=O)NC1C(=O)N2C(C(=O)O)=C(COC(=O)C3CCCNC3)C[S+]([O-])C12)c1csc(N)n1)C(=O)O` (stereo not drawn) [42 022]: the MIC in [1] was 0.5 µg/mL (≈ 0.816 µM); in [2] (setting [16]), 0.25 µg/mL (≈ 0.408 µM); in [3] (setting [17]) it was no more than 0.12 µg/mL; in [4], 0.5 µg/mL (≈ 0.816 µM); in assay [5] it was 0.25 µg/mL (≈ 0.408 µM); in assay [6] it was 2 µg/mL (≈ 3.26 µM). In addition, the MIC is 4 µg/mL (≈ 6.53 µM) in assay [7]; 0.25 µg/mL (≈ 0.408 µM) in [8]; 0.25 µg/mL (≈ 0.408 µM) in [9]; no more than 0.12 µg/mL in assay [10]; no more than 0.12 µg/mL in assay [11]; no more than 0.12 µg/mL in [12] (setting [18]). The same molecule displayed an MIC in [13] of no more than 0.12 µg/mL.
